Laboratory results as given in patent US20110152332A1, “Pesticidal Heterocyclic Compounds” (Bayer CropScience AG, priority 2009, published 2011).

What was measured:
Assay type in all cases: in vivo
[1] = test system: Two-spotted spider mite (Tetranychus urticae); assay: Test against two-spotted spider mite (Tetranychus urticae), spray; conditions: active compound concentration 100 ppm; adult mites on kidney bean, sprayed; after 7 days
Procedure: (§1) Unless described otherwise, the test solutions were prepared as follows:
(§2) The active compound, 1 part by weight of the active compound was admixed with the solvent in the above described amount which contains the emulsifying agent in the above described amount. The mixture was then diluted with water to specific concentration.
(§3) In order to prepare the test solution containing the active compound, 1 part by weight of the active compound was admixed with 3 parts by weight of the solvent dimethyl formamide which contains 1 part by weight of the emulsifying agent polyoxyethylene alkylphenyl ether. This mixture is then diluted with water to the specific concentration.
(§4) Solvent: dimethyl formamide, 3 parts by weight; emulsifying agent: polyoxyethylene alkylphenyl ether, 1 part by weight
50 to 100 adult mites of Tetranychus urticae were inoculated to leaves of kidney bean at two-leaf stage planted in a pot of 6 cm in diameter. After one day, test solution at the appropriate concentration was sprayed thereon in a sufficient amount using a spray gun. After the spraying, the plant pot was placed inside a greenhouse, and after 7 days, the acaricidal activity was calculated. An acaricidal activity of 100% means that all mites were killed, whereas an acaricidal activity of 0% means that no mite was killed.

[2] = test system: Tobacco cutworm (Spodoptera litura) larvae; assay: Test against tobacco cutworm (Spodoptera litura) larvae, leaf dip; conditions: active compound concentration 100 ppm; third instar larvae on dipped sweet potato leaves; after 7 days
Procedure: as §1, §2, §3, §4
Leaves of sweet potato were immersed in the test solution at the appropriate concentration, and the leaves were dried in air. The leaves were then placed in a petri dish having a diameter of 9 cm, and ten Spodoptera litura at third instar larvae were released therein. The petri dishes were placed in a temperature-controlled chamber at 25° C. After 2 days and 4 days more sweet potato leaves were added. After 7 days, the number of dead larvae was counted to calculate the insecticidal activity. An insecticidal activity of 100% means that all larvae were killed, whereas an insecticidal activity of 0% means that no larva was killed. In the current test, the results of two petri dishes for each treatment were averaged.

[3] = test system: Cucurbit leaf beetle (Aulacophora femoralis); assay: Test against cucurbit leaf beetle (Aulacophora femoralis), leaf dip; conditions: active compound concentration 100 ppm; second instar larvae on dipped cucumber leaves; after 7 days
Procedure: as §1, §2, §3, §4
Leaves of cucumber were immersed in the test solution at the appropriate concentration, and the leaves were dried in air. The leaves were then put in a plastic cup containing sterilized black soil and five Aulacophora femoralis at second instar larvae were released in the cup. The cups were placed in a temperature-controlled chamber at 25° C. After 7 days, the number of dead larvae was counted, and thus the insecticidal activity was calculated. An insecticidal activity of 100% means that all larvae were killed, whereas an insecticidal activity of 0% means that no larva was killed.

| SMILES | acaricidal activity [1] [%] | insecticidal activity [2] [%] | insecticidal activity [3] [%] |
| --- | --- | --- | --- |
| CCC(=O)NC(C)c1ccc(N2CC(c3cc(Cl)c(Cl)c(Cl)c3)(C(F)(F)F)OC2=O)cc1 (racemic) [Compound 1-371, N-(1-{4-[2-oxo-5-(3,4,5-trichlorophenyl)-5-(trifluoromethyl)-1,3-oxazolidin-3-yl]phenyl}ethyl)propanamide] | 100 | 100 |  |
| O=C(NCc1ccc(N2CC(c3cc(Cl)cc(Cl)c3)(C(F)(F)F)OC2=O)cc1C(F)(F)F)C1CC1 (stereo not drawn) [Compound 1-5] |  | 100 | 100 |
| CCNC(=O)NCc1ccc(N2CC(c3cc(Cl)cc(Cl)c3)(C(F)(F)F)OC2=O)cc1C(F)(F)F (stereo not drawn) [Compound 1-13] |  | 100 |  |
| CC(C)(C)OC(=O)NCc1ccc(N2CC(c3cc(Cl)cc(Cl)c3)(C(F)(F)F)OC2=O)cc1C(F)(F)F (stereo not drawn) [Compound 1-14] |  | 100 | 100 |
| NCc1ccc(N2CC(c3cc(Cl)c(Cl)c(Cl)c3)(C(F)(F)F)OC2=O)cc1C(F)(F)F (stereo not drawn) [Compound 1-15] |  | 100 |  |
| CCCC(=O)NCc1ccc(N2CC(c3cc(Cl)c(Cl)c(Cl)c3)(C(F)(F)F)OC2=O)cc1C(F)(F)F (stereo not drawn) [Compound 1-18] |  | 100 |  |
| O=C(NCc1ccc(N2CC(c3cc(Cl)c(Cl)c(Cl)c3)(C(F)(F)F)OC2=O)cc1C(F)(F)F)C1CC1 (stereo not drawn) [Compound 1-19] |  | 100 | 100 |
| O=C(CC1CC1)NCc1ccc(N2CC(c3cc(Cl)c(Cl)c(Cl)c3)(C(F)(F)F)OC2=O)cc1C(F)(F)F (stereo not drawn) [Compound 1-20] |  | 100 |  |
| O=C(CC(F)(F)F)NCc1ccc(N2CC(c3cc(Cl)c(Cl)c(Cl)c3)(C(F)(F)F)OC2=O)cc1C(F)(F)F (stereo not drawn) [Compound 1-21] | 100 | 100 | 100 |
| CSCC(=O)NCc1ccc(N2CC(c3cc(Cl)c(Cl)c(Cl)c3)(C(F)(F)F)OC2=O)cc1C(F)(F)F (stereo not drawn) [Compound 1-22] |  | 100 | 100 |
| COCCC(=O)NCc1ccc(N2CC(c3cc(Cl)c(Cl)c(Cl)c3)(C(F)(F)F)OC2=O)cc1C(F)(F)F (stereo not drawn) [Compound 1-25] | 100 | 100 |  |
| CC(C)(C)OC(=O)NCc1ccc(N2CC(c3cc(Cl)c(Cl)c(Cl)c3)(C(F)(F)F)OC2=O)cc1C(F)(F)F (stereo not drawn) [Compound 1-28] |  | 100 | 100 |
| CCC(=O)NCc1ccc(N2CC(c3cc(Cl)c(Cl)c(Cl)c3)(C(F)(F)F)OC2=O)cc1Cl (stereo not drawn) [Compound 1-31] | 100 | 100 | 100 |
| CC(=O)NCc1ccc(N2CC(c3cccc(C(F)(F)F)c3)(C(F)(F)F)OC2=O)cc1C(F)(F)F (stereo not drawn) [Compound 1-72] |  | 100 | 100 |
| CCCC(=O)NCc1ccc(N2CC(c3cccc(C(F)(F)F)c3)(C(F)(F)F)OC2=O)cc1C(F)(F)F (stereo not drawn) [Compound 1-74] |  | 100 | 100 |
| O=C(NCc1ccc(N2CC(c3cccc(C(F)(F)F)c3)(C(F)(F)F)OC2=O)cc1C(F)(F)F)C1CC1 (stereo not drawn) [Compound 1-75] | 100 | 100 | 100 |
| O=C(CC1CC1)NCc1ccc(N2CC(c3cccc(C(F)(F)F)c3)(C(F)(F)F)OC2=O)cc1C(F)(F)F (stereo not drawn) [Compound 1-76] | 100 | 100 | 100 |
| O=C(CC(F)(F)F)NCc1ccc(N2CC(c3cccc(C(F)(F)F)c3)(C(F)(F)F)OC2=O)cc1C(F)(F)F (stereo not drawn) [Compound 1-77] |  | 100 | 100 |
| CC(=O)NCc1ccc(N2CC(c3cc(C(F)(F)F)cc(C(F)(F)F)c3)(C(F)(F)F)OC2=O)cc1C(F)(F)F (stereo not drawn) [Compound 1-128] |  | 100 | 100 |
| CCC(=O)NCc1ccc(N2CC(c3cc(C(F)(F)F)cc(C(F)(F)F)c3)(C(F)(F)F)OC2=O)cc1C(F)(F)F (stereo not drawn) [Compound 1-129] | 100 | 100 | 100 |
| O=C(NCc1ccc(N2CC(c3cc(C(F)(F)F)cc(C(F)(F)F)c3)(C(F)(F)F)OC2=O)cc1C(F)(F)F)C1CC1 (stereo not drawn) [Compound 1-131] |  | 100 | 100 |

| SMILES | acaricidal activity [1] [%] | insecticidal activity [2] [%] | insecticidal activity [3] [%] |
| --- | --- | --- | --- |
| O=C(CC(F)(F)F)NCc1ccc(N2CC(c3cc(C(F)(F)F)cc(C(F)(F)F)c3)(C(F)(F)F)OC2=O)cc1C(F)(F)F (stereo not drawn) [Compound 1-133] | 100 | 100 | 100 |
| CSCC(=O)NCc1ccc(N2CC(c3cc(C(F)(F)F)cc(C(F)(F)F)c3)(C(F)(F)F)OC2=O)cc1C(F)(F)F (stereo not drawn) [Compound 1-134] | 100 | 100 | 100 |
| CS(=O)(=O)CC(=O)NCc1ccc(N2CC(c3cc(C(F)(F)F)cc(C(F)(F)F)c3)(C(F)(F)F)OC2=O)cc1C(F)(F)F (stereo not drawn) [Compound 1-136] | 100 | 100 | 100 |
| COCCC(=O)NCc1ccc(N2CC(c3cc(C(F)(F)F)cc(C(F)(F)F)c3)(C(F)(F)F)OC2=O)cc1C(F)(F)F (stereo not drawn) [Compound 1-137] | 100 |  | 100 |
| CC(=O)NCc1ccc(N2CC(c3cc(C(F)(F)F)cc(C(F)(F)F)c3)(C(F)(F)F)OC2=O)cc1Cl (stereo not drawn) [Compound 1-142] |  | 100 | 100 |
| CCC(=O)NCc1ccc(N2CC(c3cc(C(F)(F)F)cc(C(F)(F)F)c3)(C(F)(F)F)OC2=O)cc1Cl (stereo not drawn) [Compound 1-143] |  | 100 | 100 |
| CSCC(=O)NCc1ccc(N2CC(c3cc(C(F)(F)F)cc(C(F)(F)F)c3)(C(F)(F)F)OC2=O)cc1Cl (stereo not drawn) [Compound 1-148] |  |  | 100 |
| C[S+]([O-])CC(=O)NCc1ccc(N2CC(c3cc(C(F)(F)F)cc(C(F)(F)F)c3)(C(F)(F)F)OC2=O)cc1Cl (stereo not drawn) [Compound 1-149] |  | 100 | 100 |
| COCCC(=O)NCc1ccc(N2CC(c3cc(C(F)(F)F)cc(C(F)(F)F)c3)(C(F)(F)F)OC2=O)cc1Cl (stereo not drawn) [Compound 1-151] |  | 100 |  |
| CC(=O)NCc1ccc(N2CC(c3cc(C(F)(F)F)cc(C(F)(F)F)c3)(C(F)(F)F)OC2=O)cc1C (stereo not drawn) [Compound 1-156] |  | 100 |  |
| CCC(=O)NCc1ccc(N2CC(c3cc(C(F)(F)F)cc(C(F)(F)F)c3)(C(F)(F)F)OC2=O)cc1C (stereo not drawn) [Compound 1-157] |  | 100 | 100 |
| COCCC(=O)NCc1ccc(N2CC(c3cc(C(F)(F)F)cc(C(F)(F)F)c3)(C(F)(F)F)OC2=O)cc1C (stereo not drawn) [Compound 1-165] |  | 100 | 100 |
| C[C@H](NC(=O)C1CC1)c1ccc(N2CC(c3cc(Cl)cc(Cl)c3)(C(F)(F)F)OC2=O)cc1 (stereo partly drawn) [Compound 1-345-a] | 100 | 100 |  |
| CC(=O)NC(C)c1ccc(N2CC(c3cc(Cl)c(Cl)c(Cl)c3)(C(F)(F)F)OC2=O)cc1 (stereo not drawn) [Compound 1-370] |  | 100 | 100 |
| CCC(=O)N[C@H](C)c1ccc(N2CC(c3cc(Cl)c(Cl)c(Cl)c3)(C(F)(F)F)OC2=O)cc1 (stereo partly drawn) [Compound 1-371-b] |  | 100 |  |
| C[C@H](NC(=O)C1CC1)c1ccc(N2CC(c3cc(Cl)c(Cl)c(Cl)c3)(C(F)(F)F)OC2=O)cc1 (stereo partly drawn) [Compound 1-373-a] | 100 | 100 | 100 |
| CC(NC(=O)C1CC1)c1ccc(N2CC(c3cc(Cl)c(Cl)c(Cl)c3)(C(F)(F)F)OC2=O)cc1 (stereo not drawn) [Compound 1-373] | 100 | 100 |  |
| CCC(=O)NC1CCc2cc(N3CC(c4cc(Cl)cc(Cl)c4)(C(F)(F)F)OC3=O)ccc21 (stereo not drawn) [Compound 4-3] |  | 100 |  |
| CCC(=O)NC1CCc2cc(N3CC(c4cc(Cl)c(Cl)c(Cl)c4)(C(F)(F)F)OC3=O)ccc21 (stereo not drawn) [Compound 4-31] | 100 | 100 | 100 |
| O=C(NC1CCc2cc(N3CC(c4cc(Cl)c(Cl)c(Cl)c4)(C(F)(F)F)OC3=O)ccc21)C1CC1 (stereo not drawn) [Compound 4-33] | 100 | 100 | 100 |
